Laboratory results: ChEMBL document CHEMBL1944557 (Bioorg Med Chem, 2012)

Experiments:
[1] = target: T1, 5-hydroxytryptamine receptor 2C (Homo sapiens, UniProt P28335); test: Binding affinity at 5-HT2C receptor by radioligand displacement assay
T1 sequence (P28335 whole entry): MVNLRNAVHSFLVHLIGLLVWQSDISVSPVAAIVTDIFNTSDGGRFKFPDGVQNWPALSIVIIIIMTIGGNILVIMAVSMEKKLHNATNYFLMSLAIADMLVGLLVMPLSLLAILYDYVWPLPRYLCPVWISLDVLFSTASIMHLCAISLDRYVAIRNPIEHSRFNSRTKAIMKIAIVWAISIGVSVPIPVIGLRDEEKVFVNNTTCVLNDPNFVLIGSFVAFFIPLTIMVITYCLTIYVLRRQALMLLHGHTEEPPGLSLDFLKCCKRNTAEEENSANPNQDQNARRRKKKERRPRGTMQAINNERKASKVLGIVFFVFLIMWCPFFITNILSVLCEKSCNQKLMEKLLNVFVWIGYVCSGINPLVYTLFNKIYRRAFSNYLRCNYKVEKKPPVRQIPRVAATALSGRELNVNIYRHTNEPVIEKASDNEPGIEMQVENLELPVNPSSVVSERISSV

[2] = target: 5-hydroxytryptamine receptor 2A (Homo sapiens, UniProt P28223); test: Binding affinity at 5-HT2A receptor by radioligand displacement assay
Sequence of 5-hydroxytryptamine receptor 2A (P28223 whole entry): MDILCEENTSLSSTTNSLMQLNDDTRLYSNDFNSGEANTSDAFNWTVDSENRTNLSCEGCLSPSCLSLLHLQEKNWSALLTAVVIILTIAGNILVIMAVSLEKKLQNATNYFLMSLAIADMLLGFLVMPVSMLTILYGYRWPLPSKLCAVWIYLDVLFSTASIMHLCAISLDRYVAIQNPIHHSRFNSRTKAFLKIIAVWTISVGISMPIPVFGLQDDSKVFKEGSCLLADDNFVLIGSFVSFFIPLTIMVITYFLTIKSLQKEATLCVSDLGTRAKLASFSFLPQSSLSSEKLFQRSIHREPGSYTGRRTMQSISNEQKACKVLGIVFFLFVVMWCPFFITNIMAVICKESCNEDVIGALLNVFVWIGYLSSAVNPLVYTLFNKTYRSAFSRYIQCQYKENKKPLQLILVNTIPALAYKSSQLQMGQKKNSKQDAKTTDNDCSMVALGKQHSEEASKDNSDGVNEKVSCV

Histamine H1 receptor = Histamine H1 receptor (Homo sapiens, UniProt P35367); test: Displacement of [3H]-Pyrilamine from human histamine H1 receptor by liquid scintillation counter
Sequence of Histamine H1 receptor (P35367 whole entry): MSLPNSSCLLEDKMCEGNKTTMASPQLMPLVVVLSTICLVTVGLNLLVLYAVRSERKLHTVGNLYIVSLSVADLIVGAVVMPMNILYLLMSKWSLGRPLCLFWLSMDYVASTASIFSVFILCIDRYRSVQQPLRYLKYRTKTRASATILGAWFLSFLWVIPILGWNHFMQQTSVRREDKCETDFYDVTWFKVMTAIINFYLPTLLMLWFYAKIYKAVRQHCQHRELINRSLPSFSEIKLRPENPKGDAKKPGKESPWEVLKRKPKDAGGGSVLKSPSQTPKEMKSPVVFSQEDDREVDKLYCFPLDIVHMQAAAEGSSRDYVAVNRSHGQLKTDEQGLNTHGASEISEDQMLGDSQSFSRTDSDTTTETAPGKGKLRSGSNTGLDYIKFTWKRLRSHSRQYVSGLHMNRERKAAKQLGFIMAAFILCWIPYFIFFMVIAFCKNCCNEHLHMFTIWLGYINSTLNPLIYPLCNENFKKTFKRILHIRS

D(4) dopamine receptor = target: T2, D(4) dopamine receptor (Rattus norvegicus, UniProt P30729); test: Displacement of [3H]-N-methylspiperone from rat dopamine D4 receptor
T2 sequence (P30729 whole entry): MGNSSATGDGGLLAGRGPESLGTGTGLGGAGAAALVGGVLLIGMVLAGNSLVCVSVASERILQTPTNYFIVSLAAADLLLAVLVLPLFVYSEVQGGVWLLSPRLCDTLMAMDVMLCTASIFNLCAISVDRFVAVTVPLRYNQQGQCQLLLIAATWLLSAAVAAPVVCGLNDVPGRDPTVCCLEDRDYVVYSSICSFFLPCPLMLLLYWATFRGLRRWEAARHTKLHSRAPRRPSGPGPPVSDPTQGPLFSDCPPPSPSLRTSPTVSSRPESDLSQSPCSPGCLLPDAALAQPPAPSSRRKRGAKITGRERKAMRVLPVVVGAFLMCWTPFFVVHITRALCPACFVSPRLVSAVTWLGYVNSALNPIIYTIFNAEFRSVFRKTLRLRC

D(3) dopamine receptor = D(3) dopamine receptor (Homo sapiens, UniProt P35462); test: Displacement of [3H]-N-methylspiperone from dopamine D3 receptor expressed in […] MES-23.5
Sequence of D(3) dopamine receptor (P35462 whole entry): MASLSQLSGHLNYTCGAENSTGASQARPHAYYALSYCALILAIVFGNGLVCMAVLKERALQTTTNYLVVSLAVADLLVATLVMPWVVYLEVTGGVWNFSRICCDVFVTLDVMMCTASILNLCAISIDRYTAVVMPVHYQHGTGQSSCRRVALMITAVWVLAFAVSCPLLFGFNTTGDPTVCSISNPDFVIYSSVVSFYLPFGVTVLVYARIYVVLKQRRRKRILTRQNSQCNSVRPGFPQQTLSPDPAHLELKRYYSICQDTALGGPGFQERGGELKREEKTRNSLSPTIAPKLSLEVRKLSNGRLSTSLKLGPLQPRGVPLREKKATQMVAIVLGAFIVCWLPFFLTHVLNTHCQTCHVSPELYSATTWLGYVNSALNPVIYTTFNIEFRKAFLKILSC

D(2) dopamine receptor = D(2) dopamine receptor (Homo sapiens, UniProt P14416); test: Displacement of [3H]-N-methylspiperone from dopamine D2 receptor expressed in […] MES-23.5 cells; format: cell-based
Sequence of D(2) dopamine receptor (P14416 whole entry): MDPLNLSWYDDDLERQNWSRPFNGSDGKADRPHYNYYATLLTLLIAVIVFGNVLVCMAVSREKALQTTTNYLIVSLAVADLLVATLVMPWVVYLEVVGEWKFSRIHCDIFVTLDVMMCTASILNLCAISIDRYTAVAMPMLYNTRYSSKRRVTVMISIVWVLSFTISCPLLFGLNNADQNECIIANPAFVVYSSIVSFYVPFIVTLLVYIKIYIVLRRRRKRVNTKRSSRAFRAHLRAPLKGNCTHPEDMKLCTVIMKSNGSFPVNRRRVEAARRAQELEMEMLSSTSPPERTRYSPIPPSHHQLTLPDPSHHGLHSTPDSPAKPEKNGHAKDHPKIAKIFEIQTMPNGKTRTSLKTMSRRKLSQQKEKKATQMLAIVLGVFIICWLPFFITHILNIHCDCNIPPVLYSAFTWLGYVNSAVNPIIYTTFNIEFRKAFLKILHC

[3] = target: T3, 5-hydroxytryptamine receptor 1A (Homo sapiens, UniProt P08908); test: Displacement of [3H]8-OH-DPAT from 5-HT1A receptor expressed in CHO cells after 20 mins by liquid scintillation counting; format: cell-based
T3 sequence (P08908 whole entry): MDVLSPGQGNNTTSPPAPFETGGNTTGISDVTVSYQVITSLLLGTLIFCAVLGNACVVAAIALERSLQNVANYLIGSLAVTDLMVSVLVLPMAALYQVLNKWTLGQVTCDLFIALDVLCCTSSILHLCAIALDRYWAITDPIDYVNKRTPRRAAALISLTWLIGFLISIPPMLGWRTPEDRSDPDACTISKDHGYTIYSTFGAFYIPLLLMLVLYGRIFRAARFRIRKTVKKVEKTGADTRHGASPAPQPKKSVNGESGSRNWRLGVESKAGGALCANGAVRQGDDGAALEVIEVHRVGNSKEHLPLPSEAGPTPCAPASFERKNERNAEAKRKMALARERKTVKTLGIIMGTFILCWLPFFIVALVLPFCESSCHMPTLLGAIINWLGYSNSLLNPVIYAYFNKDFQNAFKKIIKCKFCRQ

With `OC1(c2ccc(Cl)cc2)C[C@H]2CC[C@@H](C1)N2CCCOc1ccc(F)cc1` (stereo partly specified) as the molecule, how does the Ki [1] read?
The Ki was “Not Active”.

Which results are given for `Fc1ccc(SCCCN2CCCN(c3ccc(Cl)cc3)CC2)cc1`?
Ki ([2]; read-out: Ki): 163 nM; Ki ([1]; read-out: Ki): 2530 nM; Ki (Histamine H1 receptor; read-out: Ki): 800 nM

What does the source list for `Fc1ccc(OCCCN2CCCN(c3ccc(Cl)cc3)CC2)cc1`?
Ki ([2]; read-out: Ki): 567 nM; Ki ([1]; read-out: Ki): > 10000 nM; Ki (Histamine H1 receptor; read-out: Ki): 509 nM

With `Fc1ccc(CCCCN2CCCN(c3ccc(Cl)cc3)CC2)cc1` as the molecule, how does the Ki ([2]; read-out: Ki) read?
The Ki was 510 nM.

What about the Ki (D(4) dopamine receptor) of the same molecule?
Its Ki is 123 nM.

And the Ki ([1]; read-out: Ki)?
Its Ki is 4100 nM.

And the Ki (Histamine H1 receptor; read-out: Ki)?
The Ki was 1250 nM.

And the Ki (D(3) dopamine receptor)?
Its Ki is 3040 nM.

What about the Ki (D(2) dopamine receptor; read-out: Ki) of the same molecule?
The Ki was 139 nM.

How did the Ki ([3]; read-out: Ki) turn out when `Clc1ccc(N2CCCN(CCCCc3nc4ccccc4s3)CC2)cc1` was run?
The Ki was 263 nM.

And the Ki ([2]; read-out: Ki)?
The Ki was 159 nM.

And the Ki (D(4) dopamine receptor)?
Its Ki is 28.6 nM.

What about the Ki ([1]; read-out: Ki) of the same molecule?
Its Ki is 1420 nM.

And the Ki (Histamine H1 receptor; read-out: Ki)?
Its Ki is 61 nM.

What about the Ki (D(3) dopamine receptor) of the same molecule?
The Ki was 152 nM.

And the Ki (D(2) dopamine receptor; read-out: Ki)?
Its Ki is 259 nM.

Which Ki ([3]; read-out: Ki) does the source give for `Clc1ccc(N2CCCN(CCCc3nc4ccccc4s3)CC2)cc1` here?
Its Ki is 216 nM.

What about the Ki ([2]; read-out: Ki) of the same molecule?
The Ki was 696 nM.

What about the Ki (D(4) dopamine receptor) of the same molecule?
Its Ki is 431 nM.

What about the Ki (Histamine H1 receptor; read-out: Ki) of the same molecule?
The Ki was 665 nM.

And the Ki (D(3) dopamine receptor)?
The Ki was 863 nM.

And the Ki (D(2) dopamine receptor)?
Its Ki is “Not Active”.

With `Clc1ccc(N2CCCN(Cc3nc4ccccc4s3)CC2)cc1` as the molecule, how does the Ki ([3]; cho) read?
Its Ki is “Not Active”.

What about the Ki [2] of the same molecule?
Its Ki is “Not Active”.

What about the Ki [1] of the same molecule?
Its Ki is “Not Active”.

And the Ki (Histamine H1 receptor)?
Its Ki is “Not Active”.

For `O=C(CCCCN1CCCN(c2ccc(Cl)cc2)CC1)c1nc2ccccc2s1`, which Ki ([3]; read-out: Ki) is on record?
Its Ki is 495 nM.

What about the Ki ([2]; read-out: Ki) of the same molecule?
The Ki was 1000 nM.

What about the Ki (D(4) dopamine receptor) of the same molecule?
Its Ki is 1210 nM.

And the Ki ([1]; read-out: Ki)?
The Ki was 5920 nM.

And the Ki (Histamine H1 receptor; read-out: Ki)?
The Ki was 129 nM.

And the Ki (D(3) dopamine receptor)?
Its Ki is 1050 nM.

And the Ki (D(2) dopamine receptor; read-out: Ki)?
The Ki was 1980 nM.

What does the source list for `O=C(CCCN1CCCN(c2ccc(Cl)cc2)CC1)c1nc2ccccc2s1`?
Ki ([3]; cho): Not Active; Ki ([2]; read-out: Ki): 1040 nM; Ki (D(4) dopamine receptor): 126 nM; Ki [1]: Not Active; Ki (D(3) dopamine receptor): 777 nM; Ki (D(2) dopamine receptor): Not Active

With `O=C(CCCCN1[C@@H]2CC[C@H]1CC(O)(c1ccc(Cl)cc1)C2)c1nc2ccccc2s1` (stereo partly specified) as the molecule, how does the Ki ([3]; cho) read?
Its Ki is “Not Active”.

What about the Ki [2] of the same molecule?
The Ki was “Not Active”.

What about the Ki [1] of the same molecule?
Its Ki is “Not Active”.
